Experimental data from paper PMC8297771 (PLoS Pathogens, 2021).
Where two headings read alike, the source gives them in different places.

Tests used:
MT4 cells = test: Tissue culture cytotoxicity measurement in MT4 cells; assay type: cell-based
Text: Fig 1 ALLINI structures and STP0404 activities. […] Pyridine-based KF116, D. Pyrrolopyridine-based STP0404. The conserved chemical moiety containing tert-butoxy and carboxylic acid groups are marked by “]”.

human PBMCs = test: Tissue culture cytotoxicity measurement in human PBMCs; assay type: cell-based; settings: human PBMCs
Text: Multiple chemical scaffolds such as quinoline (BI224436, Fig 1A), benzothiazole (GS-9822, Fig 1B) and pyridine (KF116, Fig 1C) were previously explored for the discovery of ALLINIs. Here, we employed the pyrrolopyridine-based scaffold to synthesize an ALLINI candidate compound, STP0404 (Fig 1D). STP0404 harbors the tert-butoxy moiety that is common to other ALLINIs (Fig 1). First, we measured its in vitro anti-HIV-1 efficacy and cytotoxicity using various HIV-1 strains in multiple cell types, with cytotoxicity initially tested up to 10 μM (Table 1). […] The calculated in vitro minimum therapeutic index (TI) of STP0404 under these conditions was accordingly >25,000. For comparison, we employed two FDA-approved HIV-1 inhibitors, AZT (RT inhibitor) and Raltegravir (Ral, INSTI), alongside 5 different Ral-resistant clinical isolates (Table 1).

HIV-1 NL4-3 = test: In vitro anti-viral assay in MT4 cells; assay type: cell-based
HIV-1NL4-3 = test: In vitro anti-viral assay in human PBMCs (RT activity readout); assay type: cell-based; settings: for TI (TC50 / IC50): minimal TI from IC50 and 10 μM
Method: (§1) For the assay with human PBMCs, PHA stimulated cells from at least two pooled healthy were infected with HIV-1 strains in 96-well plates. Test drug dilutions, which were prepared at a 2X concentration in microtiter tubes and 100 μL of each concentration (nine total concentrations), were placed in appropriate wells using the standard format. 50 μL of a predetermined dilution of virus stock was placed in each test well (final MOI ≅ 0.1). The PBMC cultures were maintained for 7 days following infection at 37 °C, 5% CO2. After this period, cell-free supernatant samples were collected for analysis of reverse transcriptase (RT) activity. All assays were conducted in triplicates. For RT assay, a microtiter plate-based reverse transcriptase (RT) reaction was utilized (Buckheit et al., AIDS Research and Human Retroviruses 7:295–302, 1991). Tritiated thymidine triphosphate (^3H-TTP, 80 Ci/mmol, NEN) is received in 1:1 dH2O: Ethanol at 1 mCi/mL. Poly rA:oligo dT template:primer (GE Healthcare) was prepared as a stock solution by combining 150 μL poly rA (20 mg/mL) with 0.5 mL oligo dT (20 units/mL) and 5.35 mL sterile dH2O followed by aliquoting (1.0 mL) and storage at—20°C. The RT reaction buffer was prepared fresh on a daily basis and consisted of 125 μL 1.0 M EGTA, 125 μL dH2O, 125 μL 20% Triton X100, 50 μL 1.0 M Tris (pH 7.4), 50 μL 1.0 M DTT, and 40 μL 1.0 M MgCl2. The final reaction mixture was prepared by combining 1 part ^3H-TTP, 4 parts dH2O, 2.5 parts poly rA:oligo dT stock and 2.5 parts reaction buffer. Ten microliters of this reaction mixture were placed in a round bottom microtiter plate and 15 μL of virus containing supernatant is added and mixed. The plate was incubated at 37°C for 60 mins. Following incubation, the reaction volume was spotted onto DE81 filter-mats (Wallac), washed 5 times for 5 mins each in a 5% sodium phosphate buffer or 2X SSC (Life Technologies). Next they were washed 2 times for 1 min each in distilled water, 2 times for 1 min each in 70% ethanol, and then dried. Incorporated radioactivity (counts per min, CPM) was quantified using standard liquid scintillation techniques. These PBMC analysis was conducted by fee to service through Southern Research Institute (Frederick, MD, USA). The IC50 were analyzed using GraphPad Prism (Version 9) and presented as means ± S.D. of the triplicates.

[1] = test system: Ral-resistant (4736_2) clinical isolate; test: as above; assay type: cell-based, HIV-1
Method: as §1

[2] = test system: Ral-resistant (1556_1) clinical isolate; test: as above; assay type: cell-based, HIV-1
Method: as §1

[3] = test system: Ral-resistant (8070_1) clinical isolate; test: as above; assay type: cell-based, HIV-1; settings: for TI (TC50 / IC50): human PBMCs, Ral-resistant (8070_1)
Method: as §1

[4] = test system: Ral-resistant (8070_2) clinical isolate; test: as above; assay type: cell-based, HIV-1
Method: as §1

[5] = test system: Ral-resistant (4736_4) clinical isolate; test: as above; assay type: cell-based, HIV-1
Method: as §1

SIVmac239 = test: In vitro efficacy test against SIVmac239 in CEMx174 cells (p27); assay type: cell-based, SIV; settings: p27 assay
Method: CEMx174 cells were infected with HIV-1 primary isolate 89.6 (From infectious clone p89.6, NIH AIDS Reagent Program) at approximately at 10% of cell population determined by FACS analyses. To determine antiviral activity during virus production, STP0404 was added at concentration in the range of 0.1 nM—10 μM during media exchange at 4 hrs post-infection. DMSO was used as a negative control. Cell-free supernatants were measured for p24 antigen production, 5 days post-infection. The anti-HIV-1 efficacy of the two enantiomers of STP0404 were also determined by using the same protocol. All assays were conducted in triplicates. […] For SIVmac239, CEMx174 cells were infected with viral supernatant containing SIVmac293 at 50,000 TCID50/mL (kind gift from Dr. G. Silvestri, Emory Yerkes National Primate Research Center) with 100 μL/10^6 cells at varying concentrations of STP0404, BI224436, and Raltegravir, and the same above protocol was followed except for that p27 capsid antigen content was measured daily for 5 days post infection.
Supplementary file ppat.1009671.s004.tiff: S1 Fig In vitro efficacy tests of STP0404, BI224436 and Raltegravir against SIVmac239 in CEMx174 cell culture. CEMx174 cells were infected with SIVmac239 with various concentrations of STP0404, BI224436, and Raltegravir, and the viral production was determined by p27 assay at 5 days post infection. […]

[6] = test system: HIV-1_89.6 passage 14 viral population (Y99H and A128T); test: Susceptibility of STP0404-selected viral population, passage 14, in CEMx174 cells; assay type: cell-based; settings: passage 14 viral population (Y99H and A128T) vs wild type HIV-1_89.6
Method: CEM x174 cells infected with HIV primary isolate 89.6 were cultured in the presence of STP0404 at the concentration of IC90 determined earlier. At each passage, cells from original culture in the presence of inhibitor (0.75x10^6 cells) were mixed with equal amount of no-drug control cells to propagate, and viral replication was monitored by the production of p24 antigen in the supernatant. […] The population of drug-induced mutations at each passage mentioned above was determined by sequencing of at least 10 resulting transformants.
CEM x174 cells were infected with cell-free viral supernatant collected during virus resistance assays above. […] The viral stocks were normalized by the amount of p24 capsid antigen, determined to infect CEMx174 cells at approximately 10% of populations (10,000 pg / 10^6 cells). […] Cell-free supernatants were measured for p24 antigen production 5 days post-infection. p89.6 plasmid was applied for Quickchange kit (Invitrogen) to create Y99H single, A128T single, Y99H/A128T double mutants as well as two natural variants (A124N and T125A), and these 89.6 variant viruses were generated by transfecting 293T cells and culturing the produced viruses in CEMx174 cells. The IC50 of STP0404 against respective viruses were analyzed using GraphPad Prism (Version 9) and presented as means ± S.D. of triplicates. […]

HIV-1_89.6 = test: In vitro anti-viral assay in CEMx174 cells (p24); assay type: cell-based; settings: HIV-1 89.6 / CEMx174 cells; read-out: IC50
Method: CEMx174 cells were infected with HIV-1 primary isolate 89.6 (From infectious clone p89.6, NIH AIDS Reagent Program) at approximately at 10% of cell population determined by FACS analyses. To determine antiviral activity during virus production, STP0404 was added at concentration in the range of 0.1 nM—10 μM during media exchange at 4 hrs post-infection. DMSO was used as a negative control. Cell-free supernatants were measured for p24 antigen production, 5 days post-infection. The anti-HIV-1 efficacy of the two enantiomers of STP0404 were also determined by using the same protocol. All assays were conducted in triplicates. The IC50 values were computed using GraphPad Prism (Version 9) and presented as means ± S.D. of the triplicates. For SIVmac239, CEMx174 cells were infected with viral supernatant containing SIVmac293 at 50,000 TCID50/mL (kind gift from Dr. G. Silvestri, Emory Yerkes National Primate Research Center) with 100 μL/10^6 cells at varying concentrations of STP0404, BI224436, and Raltegravir, and the same above protocol was followed except for that p27 capsid antigen content was measured daily for 5 days post infection.

[7] = column under Ral-resistant (1556_1)
[8] = column under Ral-resistant (4736_2)
[9] = column under Ral-resistant (4736_4)
[10] = column under Ral-resistant (8070_1)
[11] = column under Ral-resistant (8070_2)
[12] = Human immunodeficiency virus 1, PBMC

Row | SMILES | TC50 (MT4 cells) | TC50 (human PBMCs; NL4-3, tested up to 10 μM) | TC50 (human PBMCs; [7]) | TC50 (human PBMCs; [8]) | TC50 (human PBMCs; [9]) | TC50 (human PBMCs; [10]) | TC50 (human PBMCs; [11]) | TI (TC50 / IC50) (HIV-1 NL4-3; HIV-1 NL4-3 / MT4 cells) | TI (TC50 / IC50) (HIV-1NL4-3; human PBMCs, NL4-3) | TI (TC50 / IC50) [2] | TI (TC50 / IC50) [3] | TI (TC50 / IC50) [4] | other results
1 | Cc1nnc(C(=O)NC(C)(C)c2nc(C(=O)NCc3ccc(F)cc3)c(O)c(=O)n2C)o1 [Raltegravir] | > 10,000 nM | >10,000 nM | >10,000 nM | >10,000 nM | >10,000 nM | >10,000 nM | >10,000 nM | > 2,710 | >22,700 | ~20 | ~10 | ~100 | IC50 (HIV-1 NL4-3; Human immunodeficiency virus 1, NL43, MT4): 3.69 ± 2.8 nM; IC50 (HIV-1NL4-3; Human immunodeficiency virus 1, NL43, PBMC): 0.44 ± 0.74 nM; IC50 [1, 12]: > 50 nM; IC50 [2, 12]: > 500 nM; IC50 [3, 12]: > 1000 nM; IC50 [4, 12]: > 100 nM; IC50 [5, 12]: 36.5 ± 53.6 nM; TI (TC50 / IC50) ([5]; human PBMCs, Ral-resistant (4736_4)): >270
2 | Cc1nc2ccccc2c(-c2ccc3c4c(ccnc24)CCO3)c1[C@H](OC(C)(C)C)C(=O)O [BI224436, reference compound] | – | – | – | – | – | – | – | – | – | – | – | – | inhibition of SIVmac239 (SIVmac239): failed to inhibit; IC50 fold increase [6]: 40.5 fold
3 | Cc1cn([C@H]2C[C@H](N=[N+]=[N-])[C@@H](CO)O2)c(=O)[nH]c1=O [AZT] | > 10,000 nM | >10,000 nM | >10,000 nM | >10,000 nM | >10,000 nM | >10,000 nM | >10,000 nM | > 179 | >1,121 | >1,000 | >1,490 | >125 | IC50 (HIV-1 NL4-3; HIV-1 NL4-3 / MT4 cells, read-out: IC50): 56 ± 23.5 nM; IC50 (HIV-1NL4-3; human PBMCs, NL4-3, mean of triplicates ± SD, read-out: IC50): 8.92 ± 2.08 nM; TI (TC50 / IC50) ([1]; human PBMCs, Ral-resistant (4736_2)): >23,000; IC50 ([1]; human PBMCs, Ral-resistant (4736_2), read-out: IC50): 0.42 ± 0.37 nM; IC50 [2]: 9.33 ± 0.22 nM; IC50 [4]: 79.9 ± 11.8 nM; IC50 ([5]; human PBMCs, Ral-resistant (4736_4), read-out: IC50): 6.71 ± 5.74 nM
4 | Cc1nc2c(c(C)c(C)n2Cc2cnn(C)c2)c(-c2ccc(Cl)cc2)c1[C@H](OC(C)(C)C)C(=O)O [(S) form] | – | – | – | – | – | – | – | – | – | – | – | – | IC50 (HIV-1_89.6): 1.3 nM
